Measurements published in patent US20040259764A1, “Reticulocyte depletion signatures” (priority 2002, published 2004).
Read-outs that look alike come from different tables or passages of the source. Marks after values point to notes of the source that are not given here.

Tests used:
[1] = test system: Reticulocyte Depletion Signature (Alas2 and peripherin probes), spleen
Excerpt: (§1) Compound dosing was based on the acute dose LD50s recorded in published reference or literature sources. […] The MTD (maximum tolerated dose) was then selected as the dose at which the animals […] 5-10% body weight during the 5-day range finding study. […] In addition, the clinical observations must show no or mild clinical signs during the whole of the range-finding study. At the next highest dose, signs and symptoms of adverse effects and exceeding those of the MTD should be seen to occur. Should these criteria not be met, the range-finding study is repeated using a modified dose range.
(§2) After determination of the MTD and FED for a compound, each compound was dissolved in a vehicle for administration on day 1 of the study (additional daily doses were stored as frozen aliquots from this initial formulation). Each compound was administered to three individual male Sprague-Dawley rats for each of the two doses (MTD and FED) for one of four different times (0.25 day, 1 day, 3 days, and 5 days), yielding a total of up to 24 animals per compound study. Vehicle choice was based on solubility of the compound, effect of food on adsorption, and the vehicles used in the literature reports examined during the FED selection investigations, described above. Generally, the route and vehicle in which the FED was defined are used. When there was a choice of routes and vehicles, oral routes were chosen over injection routes. Many compounds, especially oncolytics, are only administerable intravenously. In such cases, the compound was administered as an intravenous formulation into the tail vein. Orally administered compounds were given dissolved in either water, 1% carboxymethycellulose (CMC) or corn oil. Intravenously and intraperitoneally administered compounds were given in 0.9% saline. Subcutaneously administered compounds were given in corn oil. Animal body weights were determined at 1 day and, where appropriate, at 4 days, before necropsy, and clinical observations were made on a daily basis. Control animals were dosed with vehicle only. Three male animals were used for each dose and time combination used for the compound treatment.
(§3) Tissue harvest and handling: After the allocated treatment time, the tissues from the animals were harvested. […] All the tissues collected were divided to provide samples for histopathological analyses, and the remainder of each tissue was then snap-frozen.
(§4) Preparation of enriched mRNA: Punch biopsies were taken from the frozen tissues and were completely homogenized before being processed using the MagNA Pure robot. (Roche Diagnostics Corp., Indianapolis, Ind.) in combination with the MagNA Pure LC RNA Isolation kit II (Roche Diagnostics Corp). The amount of lysis buffer was adjusted to allow 1 ml per 50 mg for liver tissue, or 1 ml per 80 mg for all other tissues. After complete homogenization and before loading of the samples into the 32-well MagNA Pure plate, the samples were syringed 5-6 times using a 20-gauge 3-ml syringe to ensure a smooth solution for robotic processing. Tissue sample processing was performed in duplicate wells (loading 150 μl of homogenized sample and 150 μl of additional lysis buffere to each well) of the MagNA Pure LC, which is programmed to extract mRNA using oligo-dT selection technology into a final elution volume of 100 μl. Poly A(+) RNA sample concentration was performed using a standard ethanol precipitation protocol in the presence of glycogen (50 μg/ml). After precipitation the final purified mRNA sample was resuspended in 7 μl DEPC-treated water and quantified using a Ribogreen high-range assay (Molecular Probes) on the Victor-Wallace II Fluorometer (Perkin-Elmer).

[2] = test system: Reticulocyte Depletion Signature (Alas2 and peripherin probes), liver
Excerpt: as §1, §2, §3, §4

[3] = test system: Reticulocyte Depletion Signature (Alas2 and peripherin probes), bone marrow
Excerpt: as §1, §2, §3, §4

[4] = test system: two specific reticulocyte-enriched transcripts
Method: as §2, §3
as §4, with “(Perkin-Elmer). Additionally, the integrity of each mRNA sample was determined using the Agilent 2100 BioAnalyzer (Agilent Technologies, Palo Alto, Calif.) in combination with the RNA 6000 Nano Lab Chip kit (Agilent Technologies).” for “(Perkin-Elmer).”
0.6-20 μg of enriched mRNA from different tissue sources was processed into cRNA in the presence of different bacterial control mRNAs (1.5pg FixA, 5pgYjek, 5pg AraB, 15pg EntF, 50pg FixB, 150pg HisB, 500pg LeuB, 1500pg Gnd) and with the modification of the addition of 1.0 μl of 100 pmol/μl HPLC-purified T7-(dT)24 oligonucleotide primer instead of a 0.5 pmol/μl unpurified T7-(dT)24 primer.
The slides were rinsed in distilled, deionized water (dd-H2O) with 0.05% Tween-20® twice for 5 seconds each before they were dried by centrifugation and stored in light protective slide boxes.

[5] = spleen data, signature derived from liver, * = p < 0.01
[6] = liver data, highest training treatment normalised to 100, * = p < 0.01
[7] = bone marrow data, signature derived from liver, * = p < 0.01
[8] = rat liver, dose, route and vehicle per compound as

COc1cc([C@@H]2c3cc4c(cc3[C@@H](O[C@@H]3O[C@@H]5CO[C@@H](C)O[C@H]5[C@H](O)[C@H]3O)[C@H]3COC(=O)[C@H]23)OCO4)cc(OC)c1O [ETOPOSIDE, 9-((4,6-0-ethylidene-β-D-glucopyranosyl)oxy)-5,8,8a,9-tetrahydro-5-(4-hydroxy-3,5,-dimethoxyphenyl)furo[3′,4′:6,7]naphtha[2,3-d]-1,3-dioxol-6(5acH)-one] was tested, and the “SPS (Spleen)” value ([1]; rat, in vivo) was 146*, the “Signature Projection Score (SPS)” value ([2]; rat, in vivo) was 100* and the “SPS (Bone Marrow)” value ([3]; rat, in vivo) was 151*. The “signal intensity for two specific reticulocyte-enriched transcripts as compared with vehicle-treated control animals” value ([4]; rat, in vivo) was “significantly decreased”.

For Nc1ccn([C@@H]2O[C@H](CO)[C@@H](O)[C@@H]2O)c(=O)n1 [CYTARABINE, 4-amino-1-β-D-arabinofuranosyl-2(1H)-pyrimidinone], the “SPS (Spleen)” value ([1]; rat, in vivo) was 17, the “Signature Projection Score (SPS)” value ([2]; rat, in vivo) was 58* and the “SPS (Bone Marrow)” value ([3]; rat, in vivo) was 0. The “signal intensity for two specific reticulocyte-enriched transcripts as compared with vehicle-treated control animals” value ([4]; rat, in vivo) was “significantly decreased”.

In the case of Cn1cnc([N+](=O)[O-])c1Sc1ncnc2nc[nH]c12 [AZATHIOPRINE, 6-((1-methyl-4-nitro-1H-imidazol-5-yl)thio)-1H-purine], the “SPS (Spleen)” value ([1]; rat, in vivo) is reported as 122*, the “Signature Projection Score (SPS)” value ([2]; rat, in vivo) is reported as 90* and the “SPS (Bone Marrow)” value ([3]; rat, in vivo) is reported as 27. For the same molecule, the “signal intensity for two specific reticulocyte-enriched transcripts as compared with vehicle-treated control animals” value ([4]; rat, in vivo) was “significantly decreased”.

In the case of O=P1(NCCCl)OCCCN1CCCl (centres unmarked) [IFOSFAMIDE, N,3-bis(2-chloroethyl)tetrahydro-2H-1,3,2-oxazaphosphorin-2-amine 2-oxide], the “SPS (Spleen)” value [1, 5] is reported as 24, the “Signature Projection Score (SPS)” value [2, 6] is reported as 95* and the “SPS (Bone Marrow)” value [3, 7] is reported as 27. The “signal intensity for two specific reticulocyte-enriched transcripts as compared with vehicle-treated control animals” value [4, 8] was “significantly decreased”.

CCCSc1ccc2nc(NC(=O)OC)[nH]c2c1 [albendazole, (5-(propylthio)-1H-benzimidazol-2yl)-carbamic acid methyl ester] was tested, and the “signal intensity for two specific reticulocyte-enriched transcripts as compared with vehicle-treated control animals” value [4, 8] was “significantly decreased”.

Nc1nc2nc[nH]c2c(=S)[nH]1 [THIOGUANINE, 2-amino-1,7-dihydro-6H-purine-6-thione] was tested, and the “SPS (Spleen)” value ([1]; rat, in vivo) was 121*, the “Signature Projection Score (SPS)” value ([2]; rat, in vivo) was 99* and the “SPS (Bone Marrow)” value ([3]; rat, in vivo) was 40. For the same molecule, the “signal intensity for two specific reticulocyte-enriched transcripts as compared with vehicle-treated control animals” value ([4]; rat, in vivo) was “significantly decreased”.

In the case of NC(=O)NO [HYDROXYUREA, Hydroxyurea], the “SPS (Spleen)” value [1, 5] is reported as 130*, the “Signature Projection Score (SPS)” value [2, 6] is reported as 71* and the “SPS (Bone Marrow)” value [3, 7] is reported as 0. The “signal intensity for two specific reticulocyte-enriched transcripts as compared with vehicle-treated control animals” value [4, 8] was “significantly decreased”.

COc1cccc2c1C(=O)c1c(O)c3c(c(O)c1C2=O)C[C@@](O)(C(=O)CO)C[C@@H]3O[C@H]1C[C@H](N)[C@H](O)[C@H](C)O1 [DOXORUBICIN, (8S-cis)-10-((3-amino-2,3,6-trideoxy-γ-L-lyxo-hexopyranosyl)oxy)-7,8,9,10-tetrahydro-6,8,11-trihydroxy-8-(hydroxyacetyl)-1-methoxy-5,12-naphthacene-dione] was tested, and the “SPS (Spleen)” value ([1]; rat, in vivo) was 138*, the “Signature Projection Score (SPS)” value ([2]; rat, in vivo) was 95* and the “SPS (Bone Marrow)” value ([3]; rat, in vivo) was 0. The “signal intensity for two specific reticulocyte-enriched transcripts as compared with vehicle-treated control animals” value ([4]; rat, in vivo) was “significantly decreased”.
